A word on the Ki: it is a dissociation constant, usually derived from enzyme kinetics or from competition with a known ligand.

One assay deals with PIM2 (Homo sapiens (Human), UniProt Q9P1W9). Put plainly: Pim kinase binding activity, Caliper LC3000 microfluidic peptide phosphorylation assay, PIM2. The settings on record: 10 μM ATP, 90 min, room temperature; read-out: PIM2 LC3K (KI). The format is biochemical. The procedure:
(§1) A fluorescent-labeled Pim-specific peptide substrate, was custom synthesized by American Peptide Company (Sunnyvale, Calif.). Reaction Buffer contained 10 mM HEPES, pH 7.2, 10 mM MgCl2, 0.01% Tween 20, 2 mM DTT. Termination Buffer contained 190 mM HEPES, pH 7.2, 0.015% Brij-35, 0.2% Coating Reagent 3 (Caliper Life Sciences, Hopkinton, Mass.), 20 mM EDTA. Separation Buffer contained 100 mM HEPES, pH 7.2, 0.015% Brij-35, 0.1% Coating Reagent 3, 1:200 Coating Reagent 8 (Caliper Life Sciences, Hopkinton, Mass.), 10 mM EDTA and 5% DMSO.
(§2) PIM reactions were carried out in a final volume of 10 μL per well in a 384-well plate. […] After 90 minutes of incubation at room temperature, the phosphorylation reaction was stopped by the addition of 10 μL Termination Buffer. The product and substrate in each independent reaction were separated on a 12-sipper microfluidic chip (Caliper Life Sciences, Hopkinton, Mass.) run on a Caliper LC3000® (Caliper Life Sciences, Hopkinton, Mass.). The separation of product and substrate was optimized by choosing voltages and pressure using Caliper's Optimizer software (Hopkinton, Mass.). […] Substrate conversion was calculated from the electropherogram using HTS Well Analyzer software (Caliper Life Sciences, Hopkinton, Mass.). Ki values for the test compound were calculated.

A further assay deals with PIM3 (Homo sapiens (Human), UniProt Q86V86). Put plainly: Pim kinase binding activity, Caliper LC3000 microfluidic peptide phosphorylation assay, PIM3. The class given is biochemical. The settings on record: 10 μM ATP, 90 min, room temperature; read-out: PIM3 LC3K (KI). The procedure:
as §1, §2

Molecules are shown by their SMILES.

PIM2, sequence (Q9P1W9 whole entry): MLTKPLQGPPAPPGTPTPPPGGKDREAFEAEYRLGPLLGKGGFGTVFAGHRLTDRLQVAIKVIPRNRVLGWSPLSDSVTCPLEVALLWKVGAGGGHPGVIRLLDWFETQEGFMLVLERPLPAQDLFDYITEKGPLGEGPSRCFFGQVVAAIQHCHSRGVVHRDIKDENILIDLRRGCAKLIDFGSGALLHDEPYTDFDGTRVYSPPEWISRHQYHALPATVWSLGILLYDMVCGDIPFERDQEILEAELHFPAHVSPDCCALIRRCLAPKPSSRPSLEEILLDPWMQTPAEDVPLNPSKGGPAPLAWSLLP

Take `CCc1cncc(-c2cc3c(cn2)cnn3-c2cccc(N3CCNC[C@H](O)C3)n2)c1` (single isomer, unassigned) [Compound 121]: the Ki on PIM2 turned out to be 10.5 nM; on PIM3, 0.301 nM.

For `Cc1cncc(-c2cc3c(cn2)cnn3-c2cccc(N3CCCC(N)C3C)n2)n1` (single isomer, unassigned) [Compound 203, 2-methyl-1-[6-[6-(6-methylpyrazin-2-yl)pyrazolo[4,3-c]pyridin-1-yl]-2-pyridyl]piperidin-3-amine], the results for the Ki at PIM2 and at PIM3 were 4.83 nM and 0.331 nM, respectively.

As to `Cc1cncc(-c2cc3c(cn2)cnn3-c2cccc(N3CCCC(N)C3C)n2)n1` (single isomer, unassigned) [Compound 204, 2-methyl-1-[6-[6-(6-methylpyrazin-2-yl)pyrazolo[4,3-c]pyridin-1-yl]-2-pyridyl]piperidin-3-amine], the Ki worked out at 0.477 nM on PIM2 and 0.025 nM on PIM3.

As to `CCn1cc(-c2cc3c(cn2)cnn3-c2cccc(N3CCNCC3)n2)cn1` [Compound 101, 6-(1-ethylpyrazol-4-yl)-1-(6-piperazin-1-yl-2-pyridyl)pyrazolo[4,3-c]pyridine], the Ki was 14.6 nM at PIM2 and 0.676 nM on PIM3.

Take `CC(C)c1cncc(-c2cc3c(cn2)cnn3-c2cccc(N3CCCNCC3)n2)c1` [Compound 103, 1-(6-(1,4-diazepan-1-yl)pyridin-2-yl)-6-(5-isopropylpyridin-3-yl)-1H-pyrazolo[4,3-c]pyridine]: the inhibition constant Ki was 2.76 nM on PIM2 and 0.065 nM on PIM3.

In the case of `CC(C)c1cncc(-c2cc3c(cn2)cnn3-c2cccc(N3CCNCC3)n2)c1` [Compound 105, 6-(5-isopropylpyridin-3-yl)-1-(6-(piperazin-1-yl)pyridin-2-yl)-1H-pyrazolo[4,3-c]pyridine], the Ki on PIM2 came to 7.14 nM; on PIM3 it was 0.183 nM.

For the compound `CCc1cncc(-c2cc3c(cn2)cnn3-c2cccc(N3CCNCC(O)C3)n2)c1` (stereo not shown) [Compound 106, 1-(6-(6-(5-ethylpyridin-3-yl)-1H-pyrazolo[4,3-c]pyridin-1-yl)pyridin-2-yl)-1,4-diazepan-6-ol], on PIM2, the Ki was 7.26 nM.

Consider `CC(C)c1cncc(-c2cc3c(cn2)cnn3-c2cccc(N3CCC[C@@H](N)C3)n2)c1` [Compound 107, (R)-1-(6-(6-(5-isopropylpyridin-3-yl)-1H-pyrazolo[4,3-c]pyridin-1-yl)pyridin-2-yl)piperidin-3-amine], for which the values for the inhibition constant (Ki) on PIM2 and at PIM3 were 9.58 nM and 0.203 nM, respectively.

As to `CC(C)c1cncc(-c2cc3c(cn2)cnn3-c2cccc(N3CCC[C@H](N)C3)n2)c1` [Compound 108, (3S)-1-[6-[6-(5-isopropyl-3-pyridyl)pyrazolo[4,3-c]pyridin-1-yl]-2-pyridyl]piperidin-3-amine], the Ki at PIM2 amounted to 1.93 nM; at PIM3, 0.049 nM.

In the case of `Cc1cc(-c2cc3c(cn2)cnn3-c2cccc(N3CCCNCC3)n2)sn1` [Compound 120, 5-[1-[6-(1 4-diazepan-1-yl)-2-pyridyl]pyrazolo[4,3-c]pyridin-6-yl]-3-methyl-isothiazole], the inhibition constant (Ki) on PIM2 was determined as 4.66 nM; at PIM3, 0.168 nM.

As to `CCn1cc(-c2cc3c(cn2)cnn3-c2cccc(N3CCCNCC3)n2)cn1` [Compound 125, 1-(6-(1,4-diazepan-1-yl)pyridin-2-yl)-6-(1-ethyl-1H-pyrazol-4-yl)-1H-pyrazolo[4,3-c]pyridine], on PIM2, the Ki was found to be 4.27 nM.

With `CCc1cncc(-c2cc3c(cn2)cnn3-c2ccc(C3CC3)c(N3CCC[C@H](N)C3)n2)c1` [Compound 139, (S)-1-(3-cyclopropyl-6-(6-(5-ethylpyridin-3-yl)-1H-pyrazolo[4,3-c]pyridin-1-yl)pyridin-2-yl)piperidin-3-amine], the inhibition constant Ki is 0.187 nM at PIM2 and 0.035 nM on PIM3.

Take `CCc1cncc(-c2cc3c(cn2)cnn3-c2cccc(N3CCC[C@H](N)C3)n2)n1` [Compound 156, (3S)-1-[6-[6-(6-ethylpyrazin-2-yl)pyrazolo[4,3-c]pyridin-1-yl]-2-pyridyl]piperidin-3-amine]: the Ki on PIM2 is 0.37 nM; on PIM3, 0.014 nM.

`FC(F)Cn1cc(-c2cc3c(cn2)cnn3-c2cccc(N3CCCNCC3)n2)cn1` [Compound 162, 1-(6-(1,4-Diazepan-1-yl)pyridin-2-yl)-6-(1-(2,2-difluoroethyl)-1H-pyrazol-4-yl)-1H-pyrazolo[4,3-c]pyridine]: the Ki at PIM2 is 2.26 nM; at PIM3 it was 0.814 nM.

On to `Cc1cncc(-c2cc3c(cn2)cnn3-c2cccc(C3CCNCC3)n2)n1` [Compound 166, 6-(6-methylpyrazin-2-yl)-1-[6-(4-piperidyl)-2-pyridyl]pyrazolo[4,3-c]pyridine], for which the values for the inhibition constant Ki on PIM2 and on PIM3 were 4.62 nM and 0.447 nM, respectively.

With `Cc1cncc(-c2cc3c(cn2)cnn3-c2cccc(N3CC[C@H](N)C3)n2)n1` [Compound 167, (3S)-1-[6-[6-(6-methylpyrazin-2-yl)pyrazolo[4,3-c]pyridin-1-yl]-2-pyridyl]pyrrolidin-3-amine], the figures for the Ki on PIM2 and at PIM3 were 2.27 nM and 0.34 nM, respectively.

With `Cc1cncc(-c2cc3c(cn2)cnn3-c2ccc(Cl)c(N3CCC[C@H](N)C3)n2)n1` [Compound 176, (S)-1-(3-chloro-6-(6-(6-methylpyrazin-2-yl)-1H-pyrazolo[4,3-c]pyridin-1-yl)pyridin-2-yl)piperidin-3-amine], the Ki turned out to be 0.317 nM at PIM2 and 0.047 nM at PIM3.

For `FC(F)(F)Cn1cc(-c2cc3c(cn2)cnn3-c2ccnc(N3CCCNCC3)n2)cn1` [Compound 179, 1-(2-(1,4-Diazepan-1-yl)pyrimidin-4-yl)-6-(1-(2,2,2-trifluoroethyl)-1H-pyrazol-4-yl)-1H-pyrazolo-[4,3-c]pyridine], at PIM3, the Ki turned out to be 1.76 nM.

`c1cc(N2CCCNCC2)nc(-n2ncc3cnc(-c4cn[nH]c4)cc32)c1` [Compound 180, 1-(6-(1,4-Diazepan-1-yl)pyridin-2-yl)-6-(1H-pyrazol-4-yl)-1H-pyrazolo[4,3-c]pyridine]: the values for the inhibition constant (Ki) at PIM2 and on PIM3 were 1.6 nM and 0.086 nM, respectively.

For the compound `Cc1cncc(-c2cc3c(cn2)cnn3-c2cccc(N3CCCCC(N)C3)n2)n1` (stereo not shown) [Compound 187, 1-[6-[6-(6-methylpyrazin-2-yl)pyrazolo[4,3-c]pyridin-1-yl]-2-pyridyl]azepan-3-amine], on PIM2, the Ki is 1.06 nM.

Regarding `Cc1cncc(-c2cc3c(cn2)cnn3-c2cccc(N3CCNC[C@@H]3C)n2)n1` [Compound 196, 1-[6-[(2S)-2-methylpiperazin-1-yl]-2-pyridyl]-6-(6-methylpyrazin-2-yl)pyrazolo[4,3-c]pyridine], the inhibition constant Ki at PIM2 amounted to 0.864 nM.

As for `Cc1cncc(-c2cc3c(cn2)cnn3-c2ccc(C(F)F)c(N3CCC[C@H](N)C3)n2)n1` [Compound 227, (S)-1-(3-(difluoromethyl)-6-(6-(6-methylpyrazin-2-yl)-1H-pyrazolo[4,3-c]pyridin-1-yl)pyridin-2-yl)piperidin-3-amine], at PIM3, the Ki amounted to 0.019 nM.

Turning to `Cc1cncc(-c2cc3c(cn2)cnn3-c2ccc(=O)n([C@H]3CCCNC3)n2)n1` [Compound 289, (S)-6-(6-(6-methylpyrazin-2-yl)-1H-pyrazolo[4,3-c]pyridin-1-yl)-2-(piperidin-3-yl)pyridazin-3(2H)-one], on PIM2, the Ki was found to be 1000 nM.

For `Cc1cncc(-c2cc3c(cn2)cnn3-c2cccc(N(C)C)n2)n1` [Compound 296, N,N-dimethyl-6-(6-(6-methylpyrazin-2-yl)-1H-pyrazolo[4,3-c]pyridin-1-yl)pyridin-2-amine], the inhibitory constant (Ki) on PIM3 came to 0.562 nM.

These data come from US9434725B2, “5-azaindazole compounds and methods of use” (priority 2012, dated 2016).
